Experimental findings from patent US20210079039A1, “COMPOSITIONS AND METHODS FOR THE SELECTIVE DELIVERY OF THERAPEUTIC AND IMAGING AGENTS” (Avelas Biosciences, Inc., priority 2018, published 2021) are described below.

pEC50: −log10 of the molar value. Numbered stars: 1 amine (or outer) side, 2 acyl side, 3 side chain; on linkers, the order of the positions; unused ones are H or OH. Square brackets hold non-standard residues; d marks the D form. Peptide text beside a SMILES is read from it. * marks the point of attachment. ξ: configuration not given here. Dolaproine(all-ξ) = COC(C(C)C(=O)[*:2])C1CCCN1[*:1]; Dolaproine = CO[C@@H]([C@@H]1CCCN1)[C@@H](C)C(=O)O; Hexanoyl(6-maleimido) = O=C1C=CC(=O)N1CCCCCC(=O)*; X1 = CC(C)[C@@H](C(=O)[*:2])N(C)C[C@@H](C)N[*:1]; Dil = CC[C@H](C)[C@H](NC)[C@@H](CC(=O)O)OC; X2 = CCC(C)C(C(CC(=O)[*:2])OC)N(C)[*:1]; X5 = CC(C)[C@@H](C(=O)*)N(C)C[C@@H](C)N; X4 = CC(C)[C@@H](C(=O)*)N(C)C[C@H](C)N; Cit = NC(=O)NCCC[CH](N)C(=O)O; NMeV = CN[CH](C(=O)O)C(C)C; ξCit = NC(=O)NCCCC(N)C(=O)O; X3 = CC(N*)C(O)c1ccccc1; Me2Gly = CN(C)CC(=O)*

In one experiment the test system is HT1080 Cells. Put plainly: Active Cellular Cytotoxic (ACC) molecules efficacy in HT1080 cells in vitro assay. Format: cell-based. As to conditions: Homo sapiens, HT-1080, 96 h, four days incubation, Prestoblue, average error of 38%. How it is done: Method: Plate cells one day prior to start of assay in 96 well black with clear bottom plates (Corning #3603), 2×10^4 cells per well in 100 μL of standard growth media (according to ATCC). Grow cells to 90% confluency.
Before start of assay rinse cells 1× with DPBS. Add compounds in a 3-fold serial dilution in triplicate (range e.g. 40 μM-18 nM), 100 μL per well in standard growth media.
Incubate four days then assay cell viability as described below. Remove media and rinse 1× with DPBS, then add 100 μL per well 10% Prestoblue Cell viability reagent (Thermo Fisher Scientific #A13261) in complete media. Return to incubator for two hours then read plate on SpectraMax M2e, bottom read excitation 555 emission 585 cut-off 570 which measures number of live cells. Cell viability was plotted versus compound concentration and data were fit to Log inhibitor vs response curve in GraphPad Prism and EC50 were determined.
Table 14 provides cellular activity data for exemplary ACCs (compound EC50 for reduction of viable cells).

The subject of experiment [1] is HT-1080 human fibrosarcoma tumor xenograft. Nature of the experiment: HT-1080 human fibrosarcoma tumor xenograft therapeutic model. It is filed as in vivo, athymic nude mice. The conditions noted are these: 0.6 to 3.0 mg/kg of cytotoxic agent component, IV on days 0 and 3, tumor volume at day 9. The method, then:
Female athymic nude mice (8-10 weeks old) purchased from Charles River (Wilmington, 01887, MA) were used after 4-7 day of acclimatization period. Institutional Animal Care and Use Committee (IACUC) approved protocols #EB11-002-009-1 and CP-17-09. HT-1080 human fibrosarcoma tumor cells from ATCC (CCL-121™) were grown using standard cell culture techniques. Tumor cells (1×10^8 tumor cells/mL) were suspended in DPBS/Matrigel™ (1:1 vol) and implanted subcutaneously (50 μL tumor cell suspension/mouse) into the upper mammary fat pad or right flank of mice with individual identification number (ear tag). Four to seven days later when the average tumor volume was about 50-100 mm^3, mice were randomized into different experimental groups to have similar averaged (Mean±SEM) tumor volume and dosed with (i) vehicle and (ii) different doses of test compounds. Each group typically had 4 mice. For each involved tumor-bearing mouse, the tumor volume (mm^3) was measured using a caliper and calculated as follows: tumor volume=width^2×length/2. Test compounds were administered intravenously (tail vein) twice (two administrations 3 days apart) in conscious restrained tumor-bearing mice throughout the study. Individual tumor volume, body weight as well as clinical signs were recorded during the study. Each study was terminated on day 12 post-dosing initiation. Mice were euthanized by intracardiac ketamine-xylazine overdose after recording the last individual body weight and tumor volume. For each experimental group and study day, the tumor volumes from all mice were averaged and expressed as Mean±SD. In order to directly and objectively compare anti-tumor activity of candidate SDM's, tumor volume was assessed at the same Day 9 timepoint (6 days after the cessation of test compound administration) for each experimental cohort of test compound-treated group(s) and vehicle. Graphs show tumor volume in cubic millimeters versus time. […] Compound administration is indicated by downward arrow over data point on day 0 and 3.
(In xenograft studies the graft and the host belong to different species.)

As to `CC[C@H](C)[C@@H]([C@@H](CC(=O)N1CCC[C@H]1[C@H](OC)[C@@H](C)C(=O)N[C@@H](Cc1ccccc1)C(=O)O)OC)N(C)C(=O)[C@@H](NC(=O)[C@H](C(C)C)N(C)C(=O)CNC)C(C)C` [ACC-4] (HELM PEPTIDE1{[Sar].[meV].V.[CC[C@H](C)[C@@H]([C@@H](CC(=O)[*:2])OC)N(C)[*:1]].[CO[C@H]([C@@H](C)C(=O)[*:2])[C@@H]1CCCN1[*:1]].F}$$$$V2.0), the pEC50 – broadly, the negative decadic logarithm of the EC50, by convention in mol/L – in the experiment with HT1080 Cells is 5.36. Take `CC[C@H](C)[C@@H]([C@@H](CC(=O)N1CCC[C@H]1[C@H](OC)[C@@H](C)C(=O)N[C@@H](Cc1ccccc1)C(=O)O)OC)N(C)C(=O)[C@@H](NC(=O)[C@H](C(C)C)N(C)C(=O)CN(C)C)C(C)C` [ACC-1] (Me2Gly-[NMeV]V[Dil][Dolaproine]F-OH): in the experiment with HT1080 Cells, the pEC50 was 5.68.

Consider `CC[C@H](C)[C@@H]([C@@H](CC(=O)N1CCC[C@H]1[C@H](OC)[C@@H](C)C(=O)N[C@@H](Cc1ccccc1)C(=O)O)OC)N(C)C(=O)[C@@H](NC(=O)[C@H](C(C)C)N(C)C[C@H](C)N)C(C)C` [ACC-11] (X4-V[Dil][Dolaproine]F-OH), for which the pEC50 with HT1080 Cells is 5.76.

For the compound `CC[C@H](C)[C@@H]([C@@H](CC(=O)N1CCC[C@H]1[C@H](OC)[C@@H](C)C(=O)N[C@@H](Cc1ccccc1)C(=O)NC)OC)N(C)C(=O)[C@@H](NC(=O)[C@H](C(C)C)N(C)C(=O)CNC(=O)[C@H](CCCNC(N)=O)NC(=O)[C@@H](NC(=O)CCCCCN1C(=O)C=CC1=O)C(C)C)C(C)C` [SDM-380] ({Hexanoyl(6-maleimido)}-V[Cit]G[NMeV]V[Dil][Dolaproine]F-NHMe), in experiment [1], the “Efficacy (percent tumor growth inhibition versus vehicle)” value is reported as “Low (Low: <29% inhibition)”. In the experiment with HT1080 Cells, `CC[C@H](C)[C@@H]([C@@H](CC(=O)N1CCC[C@H]1[C@H](OC)[C@@H](C)C(=O)N[C@@H](Cc1ccccc1)C(=O)O)OC)N(C)C(=O)[C@@H](NC(=O)[C@H](C(C)C)N(C)C[C@@H](C)NC(=O)CN)C(C)C` [ACC-8] (H-G[X1]V[Dil][Dolaproine]F-OH) showed a pEC50 of 6.04. As to `CCC(C)C(C(CC(=O)N1CCCC1C(OC)C(C)C(=O)NC(C)C(O)c1ccccc1)OC)N(C)C(=O)C(NC(=O)C(C(C)C)N(C)C(=O)CNC(=O)C(CCCNC(N)=O)NC(=O)C(NC(=O)CCCCCN1C(=O)C=CC1=O)C(C)C)C(C)C` (stereo not drawn) [SDM-320, maleimidocaproyl-valine-citrulline-GlyMMAE] ({Hexanoyl(6-maleimido)}-V[Cit]G[NMeV]V[X2][Dolaproine(all-ξ)]-X3; configuration not given here), the “Efficacy (percent tumor growth inhibition versus vehicle)” value in experiment [1] was “Low (Low: <29% inhibition)”. Turning to `CC[C@H](C)[C@@H]([C@@H](CC(=O)N1CCC[C@H]1[C@H](OC)[C@@H](C)C(=O)N[C@@H](Cc1ccccc1)C(=O)O)OC)N(C)C(=O)[C@@H](NC(=O)[C@H](C(C)C)N(C)C(=O)CN)C(C)C` [ACC-5] (HELM PEPTIDE1{G.[meV].V.[CC[C@H](C)[C@@H]([C@@H](CC(=O)[*:2])OC)N(C)[*:1]].[CO[C@H]([C@@H](C)C(=O)[*:2])[C@@H]1CCCN1[*:1]].F}$$$$V2.0), the pEC50 in the experiment on HT1080 Cells was 6.15. Same read-out and setting: the same measure for `CC[C@H](C)[C@@H]([C@@H](CC(=O)N1CCC[C@H]1[C@H](OC)[C@@H](C)C(=O)N[C@@H](Cc1ccccc1)C(=O)O)OC)N(C)C(=O)[C@@H](NC(=O)[C@H](C(C)C)N(C)C[C@@H](C)N)C(C)C` [ACC-10] (X5-V[Dil][Dolaproine]F-OH): 5.99. With `CC[C@H](C)[C@@H]([C@@H](CC(=O)N1CCC[C@H]1[C@H](OC)[C@@H](C)C(=O)N[C@@H](Cc1ccccc1)C(=O)OC)OC)N(C)C(=O)[C@@H](NC(=O)[C@H](C(C)C)N(C)C[C@@H](C)NC(=O)C(CCCNC(N)=O)NC(=O)[C@@H](NC(=O)CCCCCN1C(=O)C=CC1=O)C(C)C)C(C)C` (stereo partly drawn) [SDM-344] ({Hexanoyl(6-maleimido)}-V[ξCit][X1]V[Dil][Dolaproine]F-OMe), the “Efficacy (percent tumor growth inhibition versus vehicle)” value in experiment [1] is given as “Medium (Medium: ≥29% inhibition to <80% inhibition)”.
